The target of assay [1] is T1, hLIFR (recombinant human LIFR, His Tag) (Homo sapiens, UniProt P42702).
T1 sequence (P42702 45-833 limits assumed): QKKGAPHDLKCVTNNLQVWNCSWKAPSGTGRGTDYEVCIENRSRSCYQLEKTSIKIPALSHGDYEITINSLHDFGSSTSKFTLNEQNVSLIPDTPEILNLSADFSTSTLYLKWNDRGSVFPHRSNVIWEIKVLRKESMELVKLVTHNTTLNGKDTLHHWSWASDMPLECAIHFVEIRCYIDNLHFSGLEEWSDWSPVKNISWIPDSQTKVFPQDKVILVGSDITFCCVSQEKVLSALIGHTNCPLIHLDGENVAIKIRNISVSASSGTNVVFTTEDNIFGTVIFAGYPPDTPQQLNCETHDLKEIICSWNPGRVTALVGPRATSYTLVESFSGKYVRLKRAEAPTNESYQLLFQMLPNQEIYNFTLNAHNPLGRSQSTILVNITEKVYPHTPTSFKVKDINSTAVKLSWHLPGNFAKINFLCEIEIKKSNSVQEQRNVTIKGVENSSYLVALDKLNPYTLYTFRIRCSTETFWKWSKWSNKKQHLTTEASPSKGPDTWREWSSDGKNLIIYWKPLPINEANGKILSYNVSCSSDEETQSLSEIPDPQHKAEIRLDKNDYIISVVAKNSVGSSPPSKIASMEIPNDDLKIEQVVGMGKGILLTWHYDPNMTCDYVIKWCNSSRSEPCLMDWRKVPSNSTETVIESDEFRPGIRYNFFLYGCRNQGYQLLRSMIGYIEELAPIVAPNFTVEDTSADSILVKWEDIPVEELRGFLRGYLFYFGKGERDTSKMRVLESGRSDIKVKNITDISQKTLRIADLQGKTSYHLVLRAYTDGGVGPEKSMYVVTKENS
The assay can be described thus: AlphaScreen, inhibition of LIFR/LIF binding.

Assay [2] deals with T2, hLIFR and CD130 (IL6ST); LIFR/gp130 (Homo sapiens, UniProt P42702).
T2 sequence (P42702 45-1097): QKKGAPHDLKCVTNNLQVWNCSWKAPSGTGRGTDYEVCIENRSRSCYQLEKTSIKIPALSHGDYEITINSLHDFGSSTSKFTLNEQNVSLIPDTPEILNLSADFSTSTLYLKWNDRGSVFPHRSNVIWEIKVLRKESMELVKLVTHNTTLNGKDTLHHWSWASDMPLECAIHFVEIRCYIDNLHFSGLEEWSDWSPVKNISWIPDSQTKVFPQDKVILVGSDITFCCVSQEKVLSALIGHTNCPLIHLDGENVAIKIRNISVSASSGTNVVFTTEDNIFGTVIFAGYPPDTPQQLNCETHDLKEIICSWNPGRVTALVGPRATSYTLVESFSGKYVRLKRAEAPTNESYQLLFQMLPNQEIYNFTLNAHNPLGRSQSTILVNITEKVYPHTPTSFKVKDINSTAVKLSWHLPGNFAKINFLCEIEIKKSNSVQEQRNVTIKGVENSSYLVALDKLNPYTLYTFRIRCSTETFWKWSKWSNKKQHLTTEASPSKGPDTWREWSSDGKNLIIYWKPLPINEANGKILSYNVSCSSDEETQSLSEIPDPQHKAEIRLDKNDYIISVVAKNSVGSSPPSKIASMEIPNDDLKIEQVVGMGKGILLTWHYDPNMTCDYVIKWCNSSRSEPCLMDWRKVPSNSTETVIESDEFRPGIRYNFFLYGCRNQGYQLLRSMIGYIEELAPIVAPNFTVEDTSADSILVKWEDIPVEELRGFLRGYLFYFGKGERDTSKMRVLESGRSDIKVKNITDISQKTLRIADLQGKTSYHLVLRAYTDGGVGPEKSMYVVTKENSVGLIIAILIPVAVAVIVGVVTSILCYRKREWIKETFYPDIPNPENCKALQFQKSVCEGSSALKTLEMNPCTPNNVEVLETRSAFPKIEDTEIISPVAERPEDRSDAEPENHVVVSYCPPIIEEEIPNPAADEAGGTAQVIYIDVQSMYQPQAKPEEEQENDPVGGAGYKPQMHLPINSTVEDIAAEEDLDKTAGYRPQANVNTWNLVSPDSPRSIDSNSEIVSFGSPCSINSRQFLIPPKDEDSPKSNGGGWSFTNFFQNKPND
The assay can be described thus: STAT3. The format is cell-based.

SMILES strings stand for the structures.

Turning to `C[C@H](CCC(=O)O)[C@H]1CC[C@H]2[C@@H]3CC[C@@H]4C[C@H](O)CC[C@]4(C)[C@H]3C[C@H](O)[C@]12C` [DCA], the IC50 in assay [1] was 18.4 µM; in assay [2] it was roughly 6.2 µM.
As to `C[C@H](CCC(=O)NCC(=O)O)[C@H]1CC[C@H]2[C@@H]3[C@H](O)C[C@@H]4C[C@H](O)CC[C@]4(C)[C@H]3CC[C@]12C` [GCDCA], the IC50 in assay [1] came to 50.6 µM.
Consider `C[C@H](CCC(=O)NCC(=O)O)[C@H]1CC[C@H]2[C@@H]3CC[C@@H]4C[C@H](O)CC[C@]4(C)[C@H]3CC[C@]12C` [GLCA], for which the IC50 was 23 µM in assay [1] and roughly 9.8 µM in assay [2].
Regarding `C[C@H](CCC(=O)NCCS(=O)(=O)O)[C@H]1CC[C@H]2[C@@H]3[C@H](O)C[C@@H]4C[C@H](O)CC[C@]4(C)[C@H]3CC[C@]12C` [TCDCA], in assay [1], the IC50 was determined as 38 µM.

One may read the IC50 as the concentration needed to halve the response being measured.
